In patent US11279744B2, “Neuropeptide Y fragment capable of releasing hematopoietic stem cells into blood and treating osteoporosis” (Kyungpook National University Industry-Academic Cooperation …, priority 2017, dated 2022):
“Also recorded” adds a separate entry of the source. Non-standard residues stand in square brackets, D forms with d. No end group written: not given here.

What was measured:
[1] = tested on: osteoblasts in bone marrow; assay: H & E staining of osteoblasts in bone marrow of osteoporosis animal models; type: in vivo, mouse; conditions: OVX mice, 50 μg/kg i.p. twice a day for 4 weeks; compared to PBS
Protocol: (§1) To make an osteoporosis model, 10-18 12 weeks old female mice per group underwent ovarian ablation. A week later, 50 μg/kg of NPY(21-28), NPY D^25(21-28), NPY D^26(21-28), NPY D^25,26(21-28), Osteopep2, NPY and 100 μl of PBS(Gibco) were intraperitoneally administered twice a day for 4 weeks at 12 hour intervals. Alendronate (Sigma), used as a competitive drug, was intraperitoneally administered once a week for 4 weeks at a dose of 50 μg/kg. As a control group, only Sham model of osteoporosis was performed by subcutaneous dissection of female mouse. Mice were placed in experimental groups using the Block randomization method, and all mouse experiments were approved through the Kyungpook National University Institutional Animal Care and Use Committee.
The femurs were separated from the mice and fixed in 4% paraformaldehyde for 24 hours, and tissue was decalcified in 10% EDTA for 5 weeks. It was then dehydrated with a series of diluted alcohols, paraffinized, and prepared into […] paraffin sections.
For H & E staining, the deparaffinized sections were stained with Harris hematoxyline for 8 minutes, washed with distilled water, and stained with Eosin for 1 minute.
Histomorphometric analysis was performed using the OsteoMeasure program (Extensive interactive Bone Histomorphometry Analysis System).
After the last administration of 4 weeks of NPY (21-28), the femurs were separated from the mice, and the number of osteoblasts in bone marrow was measured by H & E staining.
After the last administration of 4 weeks of NPY D^25(21-28), NPY D^26(21-28), and NPY D^25,26(21-28), the femurs were separated from the mice and the number of osteoblasts in bone marrow was measured by H & E staining.

[2] = tested on: animal models of osteoporosis; assay: Micro CT bone density in animal models of osteoporosis; type: in vivo, mouse; conditions: OVX mice, 50 μg/kg i.p. twice a day for 4 weeks; femur microCT; compared to PBS
Protocol: as §1, with “Committee. The femurs were separated from the mouse and refrigerated in 80% ethanol, and in order to measure change of bone density, the bone volume/total volume and trabecular thickness were measured by analyzing the area between 0.7 mm and 2.3 mm from the growth plate baseline with the Quantum FX microCT Imaging System. Femurs were separated from mice after the last administration of NPY (21-28) at 4 weeks. To determine the change of bone density, bone density (bone volume/total volume) and bone tissue thickness (trabecular thickness) were measured with the Quantum FX microCT Imaging System. Femurs were separated from mice after the last administration of NPY D^25(21-28), NPY D^26(21-28), and NPY D^25,26(21-28) at 4 weeks. To determine the change of bone density, bone density (bone volume/total volume) and bone tissue thickness (trabecular thickness) were measured with the Quantum FX microCT Imaging System.” for “Committee.”

[3] = tested on: hematopoietic stem cell adhesion factors (Sdf-1a, KitI, Angpt1) present in osteoblasts; assay: expression of hematopoietic stem cell adhesion factors in osteoblasts, real-time quantitative PCR; type: cell-based, mouse; conditions: for expression levels of Sdf-1a, KitI, and Angpt1 in osteoblasts: 10 nM peptide for 3 days, compared to osteoblasts (control) not treated with peptides, fold change
Protocol: All mice used in the experiment were 6 to 8 weeks old mice, C57BL/6 mice, and purchased from Jackson Laboratory (Bar Harbor, Me., USA). NPY (21-28) (SEQ ID NO: 1), NPY (24-31) (SEQ ID NO: 2), NPY (29-36) (SEQ ID NO: 3), NPY D25 (21-28) (SEQ ID NO: 4), NPY D26 (21-28) (SEQ ID NO: 5), NPY D25, 26 (21-28) (SEQ ID NO: 6), NPY (21-36) (Osteopep2) (SEQ ID NO: 7) were prepared from Anygen. Full length NPY (SEQ ID NO: 8) was purchased from Bachem. 10 nM of each peptide was diluted in each medium and injected for in vitro experiments. The NPY D^25(21-28) refers to a peptide in which arginine, the fifth amino acid of the amino acid sequence of NPY (21-28), is modified to D-type, the NPY D^26(21-28) refers to a peptide in which the sixth amino acid histidine is modified to D-form, and the D^25,26(21-28) refers to a peptide in which both the fifth and sixth amino acids are modified to D-form, respectively.
Four to six weeks old C57BL/6 mice were sacrificed after anesthesia, and then tibias and femurs were dissected. Bone marrow was harvested from tibias and femurs and single cell suspensions were obtained using a 40 μm cell strainer (Becton-Dickinson LAβware, Franklin Lakes, N.J.). Approximately […] were dispensed into 75-cm 2 flasks containing mesenchymal stem cells Stimulatory Supplements with antibiotics (Stem Cell Technologies, Inc) and MesenCult™ MSCBasal medium. The cells were incubated for 1 week and further incubated for 3 weeks with StemXVivo Osteogenic/Adipogenic Base Media (R & D systems) supplemented with StemXVivo Osteogenic supplement (20×) and penicillin-streptomycin (100×) for differentiation into osteoblasts.
Real-time quantitative PCR was used to measure expression levels of hematopoietic stem cell adhesion factors (Sdf-1a, KitI, Angpt1) present in osteoblasts. Total RNA was extracted from cell eluate and bone marrow cells using the RNeasy Plus mini kit (Qiagen, Korea, Ltd), and cDNAs were synthesized from 5 μg total RNA using a kit in Clontech (Mountain View, Calif.). In addition, using a Corbett research RG-6000 real-time PCR instrument, Real-time quantitative PCR was performed at 95° C. for 10 minutes; at 95° C., for 10 seconds; at 58° C., for 15 seconds; at 72° C. for 20 seconds as one cycle, and 40 cycles were repeated.
First, bone marrow was harvested from 4 to 6 weeks old C57BL6 mice, and mesenchymal stem cells (BM-MSCs) in bone marrow were collected, and then cultured for 3 weeks in osteoblast differentiation induction medium for the differentiation into osteoblasts. After 28 days, each peptide was treated with 10 nM for 3 days, and bone cells were collected and examined for expression levels of three adhesion factors by real-time quantitative PCR. Osteopep2 and its parent NPY were used as positive controls.

With “NPY D^25(21-28): peptide in which arginine, the fifth amino acid of the amino acid sequence of NPY (21-28), is modified to D-type (YSAL[dR]HYI)” the “number of osteoblast (Number of osteoblast/Bone surface)” value [1] was “increased”, the “osteoblast surface (Osteoblast surface/Bone surface)” value [1] was “increased” and the “bone tissue thickness (trabecular thickness)” value (“bone tissue thickness” for short) [2] was “increased; also recorded: equal to or higher than that of NPY (21-28)”. The “percentage of bone density (BV/TV)” value [2] was “increased; also recorded: equal to or higher than that of NPY (21-28)” and the “expression levels of Sdf-1a, KitI, and Angpt1 in osteoblasts” value (“expression levels of Sdf-1a, KitI” below) [3] was “decreased”.
“NPY D^25,26(21-28): peptide in which both the fifth and sixth amino acids of NPY (21-28) are modified to D-form (YSAL[dR][dH]YI)” was tested, and the “number of osteoblast (Number of osteoblast/Bone surface)” value [1] was “increased”, the “osteoblast surface (Osteoblast surface/Bone surface)” value [1] was “increased” and the “bone tissue thickness” value [2] was “increased; also recorded: equal to or higher than that of NPY (21-28); also recorded: best effect”. For the same substance, the “percentage of bone density (BV/TV)” value [2] was “increased; also recorded: equal to or higher than that of NPY (21-28); also recorded: best effect”, the “expression levels of Sdf-1a, KitI” value [3] was “decreased” and the “amount of Angpt1 expression in osteoblasts, compared with NPY (21-28)” value ([3]; 10 nM peptide, osteoblasts) was “further reduce the amount of Angpt1 expression than NPY (21-28)”.
YSALRHYI [NPY (21-28)] was tested, and the “number of osteoblast (Number of osteoblast/Bone surface)” value [1] was “increased; also recorded: better than that of Osteopep2”, the “osteoblast surface (Osteoblast surface/Bone surface)” value [1] was “increased; also recorded: better than that of Osteopep2” and the “bone tissue thickness” value [2] was “better than that of the Osteopep2 and NPY”. For the same substance, the “percentage of bone density (BV/TV)” value [2] was “better than that of the Osteopep2 and NPY” and the “expression levels of Sdf-1a, KitI” value [3] was “decreased”.
